According to patent publication US10414765B2, “Substituted perhydropyrrolo[3,4-c]pyrrole derivatives and the use of same” (BAYER PHARMA AKTIENGESELLSCHAFT, priority 2015, dated 2019):

Key:
Type in all cases: cell-based
[1] = target: T1, human TASK-1 (Homo sapiens (Human), UniProt O14649); experiment: Two-electrode voltage clamp of human TASK-1 channels expressed in Xenopus laevis oocytes
Protocol: (§1) B-1. In Vitro Electrophysiological Analysis of the Human TASK-1 and TASK-3 Channels Via Two-Electrode Voltage Clamp Technique in Xenopus laevis Oocytes
(§2) Xenopus laevis oocytes were selected as described elsewhere by way of illustration [Decher et al., FEBS Lett. 492, 84-89 (2001)]. Subsequently, the oocytes were injected with 0.5-5 ng of a cRNA solution coding for TASK-1 or TASK-3. For the electrophysiological analysis of the channel proteins expressed in the oocytes, the two-electrode voltage clamp technique [Stiihmer, Methods Enzymol. 207, 319-339 (1992)] was used. The measurements were conducted as described [Decher et al., FEBS Lett. 492, 84-89 (2001)] at room temperature (21-22° C.) using a Turbo TEC 10CD amplifier (NPI), recorded at 2 kHz and filtered with 0.4 kHz. Substance administration was performed using a gravitation-driven perfusion system. Here, the oocyte is located in a measuring chamber and exposed to the solution stream of 10 ml/min. The level in the measuring chamber is monitored and regulated by sucking off the solution using a peristaltic pump.

[2] = target: T2, human TASK-3 (Homo sapiens (Human), UniProt Q9NPC2); experiment: Two-electrode voltage clamp of human TASK-3 channels expressed in Xenopus laevis oocytes
T2 sequence (Q9NPC2 whole entry): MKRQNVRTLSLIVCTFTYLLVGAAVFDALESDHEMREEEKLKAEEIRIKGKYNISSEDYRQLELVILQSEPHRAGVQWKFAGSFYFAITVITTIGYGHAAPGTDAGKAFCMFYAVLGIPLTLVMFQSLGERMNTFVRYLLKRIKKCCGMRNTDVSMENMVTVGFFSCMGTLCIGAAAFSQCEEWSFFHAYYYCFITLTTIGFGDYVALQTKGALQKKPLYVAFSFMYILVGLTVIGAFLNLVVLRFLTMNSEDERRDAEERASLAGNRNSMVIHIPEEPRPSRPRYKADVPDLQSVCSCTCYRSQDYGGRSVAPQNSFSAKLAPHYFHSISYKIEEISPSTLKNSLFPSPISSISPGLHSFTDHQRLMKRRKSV
Protocol: as §1, §2

[3] = target: T1, human TASK-1; experiment: Inhibition of recombinant TASK-1 in stably transfected CHO cells (voltage-sensitive dye, 40 mM KCl depolarization); details: 40 mM potassium chloride
Protocol: (§3) B-2. Inhibition of Recombinant TASK-1 and TASK-3 In Vitro
(§4) The investigations on the inhibition of the recombinant TASK-1 and TASK-3 channels were conducted using stably transfected CHO cells. The compounds according to the invention were tested in this case by application of 40 mM potassium chloride in the presence of a voltage-sensitive dye according to the methods described in detail in the following references [Whiteaker et al., Validation of FLIPR membrane potential dye for high-throughput screening of potassium channel modulators, J. Biomol. Screen. 6 (5), 305-312 (2001); Molecular Devices FLIPR Application Note: Measuring membrane potential using the FLIPR® membrane potential assay kit on Fluorometric Imaging Plate Reader (FLIPR®) systems, http://www.moleculardevices.com/reagents-supplies/assay-kits/ion-channels/flipr-membrane-potential-assay-kits]. The activity of the test substances was determined as their ability to inhibit a depolarization induced in the recombinant cells by 40 mM potassium chloride. The concentration which can block half of this depolarization is referred to as IC50.

[4] = target: T2, human TASK-3; experiment: Inhibition of recombinant TASK-3 in stably transfected CHO cells (voltage-sensitive dye, 40 mM KCl depolarization); details: 40 mM potassium chloride
Protocol: as §3, §4

T1 sequence (O14649 whole entry): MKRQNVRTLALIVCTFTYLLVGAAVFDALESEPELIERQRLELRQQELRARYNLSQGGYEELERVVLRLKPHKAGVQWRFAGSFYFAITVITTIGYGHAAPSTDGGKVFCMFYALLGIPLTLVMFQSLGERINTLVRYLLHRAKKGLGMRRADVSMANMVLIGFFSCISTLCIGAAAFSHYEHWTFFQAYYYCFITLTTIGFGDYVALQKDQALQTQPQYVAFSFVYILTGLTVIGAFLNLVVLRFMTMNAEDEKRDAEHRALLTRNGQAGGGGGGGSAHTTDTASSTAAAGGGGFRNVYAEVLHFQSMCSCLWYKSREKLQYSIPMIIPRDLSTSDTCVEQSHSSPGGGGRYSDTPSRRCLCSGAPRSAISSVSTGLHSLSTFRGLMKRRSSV

IC50 [1]	IC50 [2]	IC50 [3]	IC50 [4]	Structure (SMILES)
31.2 ± 1.7 nM	970 ± 220 nM	206 nM	485 nM	COc1cccc(C(=O)N2CC3CN(Cc4c(-c5ccc(Br)cc5)nc5ccccn45)CC3C2)c1 (stereo not drawn) [Example 10]
9.3 ± 2.5 nM	21.8 ± 2.2 nM	721 nM	1900 nM	COc1cccc(C(=O)N2CC3CN(Cc4c(-c5ccc(Cl)cc5)nc5ccccn45)CC3C2)c1 (stereo not drawn) [Example 17]
62.2 ± 7.9 nM	44.1 ± 5.8 nM	230 nM	410 nM	COc1cccc(C(=O)N2CC3CN(Cc4c(-c5ccc(C(C)C)cc5)nc5ccccn45)CC3C2)n1 (stereo not drawn) [Example 25]
